Results taken from article PMC3537229 (European journal of pharmacology, 2012).
Where two headings read alike, the source gives them in different places.

Key:
NET [1] = molecular target: T1, NET (Rattus norvegicus, UniProt Q63380); conditions: percentage of maximal release response; ref Baumann et al. (2012b); cited from earlier work
SERT [2] = molecular target: T2, SERT (Rattus norvegicus, UniProt P31652); conditions: percentage of maximal release response; ref Baumann et al. (2012b); cited from earlier work
T2 sequence (P31652 whole entry): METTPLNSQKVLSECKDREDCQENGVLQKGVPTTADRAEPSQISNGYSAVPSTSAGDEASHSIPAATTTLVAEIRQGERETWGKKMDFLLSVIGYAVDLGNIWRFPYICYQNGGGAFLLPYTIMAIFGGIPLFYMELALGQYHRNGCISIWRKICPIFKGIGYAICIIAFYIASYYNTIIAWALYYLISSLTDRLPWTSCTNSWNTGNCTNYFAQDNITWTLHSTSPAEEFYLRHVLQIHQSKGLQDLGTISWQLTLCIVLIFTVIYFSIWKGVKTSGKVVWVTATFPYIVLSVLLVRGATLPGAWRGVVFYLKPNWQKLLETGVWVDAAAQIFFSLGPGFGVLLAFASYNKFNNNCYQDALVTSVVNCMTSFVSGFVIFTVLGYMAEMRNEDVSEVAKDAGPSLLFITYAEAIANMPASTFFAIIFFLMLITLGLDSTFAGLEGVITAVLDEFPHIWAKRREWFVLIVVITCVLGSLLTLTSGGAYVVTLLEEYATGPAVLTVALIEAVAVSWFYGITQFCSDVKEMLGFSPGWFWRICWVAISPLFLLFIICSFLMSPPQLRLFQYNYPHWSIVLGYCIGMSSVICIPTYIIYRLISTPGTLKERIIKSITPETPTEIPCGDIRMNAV

mice [3] = conditions: mice, 1, 3 or 10 mg/kg, i.p.; ref Robinson et al. (2012); cited from earlier work
DAT [4] = molecular target: T3, DAT (Rattus norvegicus, UniProt P23977); test: Inhibition of [3H]dopamine uptake in rat brain synaptosomes; assay type: biochemical
T3 sequence (P23977 whole entry): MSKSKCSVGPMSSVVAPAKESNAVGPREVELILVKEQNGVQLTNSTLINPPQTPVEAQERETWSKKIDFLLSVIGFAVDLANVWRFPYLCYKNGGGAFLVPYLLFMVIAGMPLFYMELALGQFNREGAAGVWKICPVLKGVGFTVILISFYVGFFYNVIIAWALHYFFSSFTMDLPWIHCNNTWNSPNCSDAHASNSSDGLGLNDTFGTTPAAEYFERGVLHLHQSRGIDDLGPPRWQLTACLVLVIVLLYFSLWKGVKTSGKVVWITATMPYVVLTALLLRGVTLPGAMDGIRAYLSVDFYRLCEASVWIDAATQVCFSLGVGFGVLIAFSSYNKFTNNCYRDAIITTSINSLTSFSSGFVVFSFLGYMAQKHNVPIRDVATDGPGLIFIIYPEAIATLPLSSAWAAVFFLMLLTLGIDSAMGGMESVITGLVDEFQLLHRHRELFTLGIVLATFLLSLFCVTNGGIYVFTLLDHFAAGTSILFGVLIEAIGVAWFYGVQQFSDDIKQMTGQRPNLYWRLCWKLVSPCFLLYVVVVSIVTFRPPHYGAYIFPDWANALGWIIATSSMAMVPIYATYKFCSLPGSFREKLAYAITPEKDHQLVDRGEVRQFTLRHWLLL

NET [5] = molecular target: T1, NET; test: Inhibition of [3H]norepinephrine uptake in rat brain synaptosomes; assay type: biochemical
SERT [6] = molecular target: T2, SERT; test: Inhibition of [3H]serotonin uptake in rat brain synaptosomes; assay type: biochemical
DAT [7] = molecular target: T3, DAT; test: Release of [3H]MPP+ via DAT in rat brain synaptosomes; assay type: biochemical
NET [8] = molecular target: T1, NET; test: Release of [3H]MPP+ via NET in rat brain synaptosomes; assay type: biochemical
SERT [9] = molecular target: T2, SERT; test: Release of [3H]serotonin via SERT in rat brain synaptosomes; assay type: biochemical
rats [10] = conditions: cited from earlier work
DAT [11] = molecular target: T3, DAT; conditions: percentage of maximal release response; ref Baumann et al. (2012b); cited from earlier work
[12] = tested on: extracellular levels of dopamine and serotonin in rat nucleus accumbens; conditions: i.v. injection, 0.3 or 1.0 mg/kg; ref Baumann et al., 2012a; cited from earlier work
mice [13] = conditions: ref Angoa-Perez et al., 2012, Lopez-Arnau et al., Marusich et al.; cited from earlier work
mice [14] = conditions: 30 mg/kg, i.p.; ref Lisek et al., 2012; cited from earlier work
rats [15] = conditions: 30 mg/kg, i.p.; ref Lisek et al., 2012; cited from earlier work
[16] = ref Kehr et al., 2011; cited from earlier work

T1 sequence (Q63380 1-617): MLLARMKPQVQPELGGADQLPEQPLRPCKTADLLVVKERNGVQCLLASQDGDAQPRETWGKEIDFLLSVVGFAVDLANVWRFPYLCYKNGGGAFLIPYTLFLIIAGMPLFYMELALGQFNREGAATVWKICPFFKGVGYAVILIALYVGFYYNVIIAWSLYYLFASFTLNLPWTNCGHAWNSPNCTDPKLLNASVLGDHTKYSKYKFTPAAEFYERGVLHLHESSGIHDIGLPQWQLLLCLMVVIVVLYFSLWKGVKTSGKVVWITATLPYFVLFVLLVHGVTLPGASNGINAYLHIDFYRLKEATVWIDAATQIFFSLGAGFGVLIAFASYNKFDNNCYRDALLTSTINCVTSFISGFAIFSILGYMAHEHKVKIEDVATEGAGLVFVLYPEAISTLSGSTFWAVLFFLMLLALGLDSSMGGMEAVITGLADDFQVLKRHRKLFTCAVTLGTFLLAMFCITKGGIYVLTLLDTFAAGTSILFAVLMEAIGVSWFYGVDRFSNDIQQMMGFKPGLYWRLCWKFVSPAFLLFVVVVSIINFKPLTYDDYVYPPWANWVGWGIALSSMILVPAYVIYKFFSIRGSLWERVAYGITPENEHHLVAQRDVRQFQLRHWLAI

SMILES: CC(N)Cc1ccccc1 (centres unmarked) [Amphetamine]
- NET release Emax % (NET [1]): 92 ± 1%
- SERT release Emax % (SERT [2]): 97 ± 2%

SMILES: COC(=O)[C@H]1[C@@H](OC(=O)c2ccccc2)C[C@@H]2CC[C@H]1N2C [Cocaine]
- Brain stimulation reward thresholds (mice [3]): this effect is mimicked by identical doses of cocaine

SMILES: CNC(C)Cc1ccc2c(c1)OCO2 (centres unmarked) [MDMA, 3,4-methylenedioxymethamphetamine]
- IC50 (DAT [4]): 1010 ± 39 nM
- IC50 (NET [5]): 450 ± 30 nM
- IC50 (SERT [6]): 125 ± 11 nM
- EC50 (DAT [7]): 42 ± 2 nM
- Emax (DAT [7]; read-out: DAT release Emax %): 100%
- EC50 (NET [8]): 53 ± 7 nM
- Emax (NET [8]; read-out: NET release Emax %): 95%
- EC50 (SERT [9]): 39 ± 5 nM
- Emax (SERT [9]; read-out: SERT release Emax %): 103%

SMILES: CCCC(C(=O)c1ccc2c(c1)OCO2)N1CCCC1 (centres unmarked) [MDPV, 3,4-methylenedioxypyrovalerone]
- Uptake blocking potency at DAT compared to cocaine (fold more potent) (DAT [4]; more potent than cocaine): 50 fold
- Uptake blocking potency at NET compared to cocaine (fold more potent) (NET [5]; more potent than cocaine): 10 fold
- Uptake blocking potency at SERT compared to cocaine (fold less potent) (SERT [6]; less potent than cocaine): 10 fold
- Self-administration by rats (rats [10]; i.v., 0.05, 0.1 or 0.2 mg/kg, ref Watterson et al., 2012): is readily self-administered by rats
- Drug-taking behavior with extended access (rats [10]; rats allowed extended access to the drug, ref Watterson et al., 2012): escalation of drug-taking behavior is observed

SMILES: CNC(C)C(=O)c1ccc(C)cc1 (centres unmarked) [Mephedrone, 4-methylmethcathinone]
- DAT release Emax % (DAT [11]): 102 ± 2%
- NET release Emax % (NET [1]): 99 ± 4%
- SERT release Emax % (SERT [2]): 101 ± 1%
- Extracellular levels of dopamine and serotonin in rat nucleus accumbens [12]: increases extracellular levels of dopamine and serotonin
- Locomotor stimulant effects in mice (mice [13]): produces locomotor stimulant effects
- Place preference in mice (mice [14]): engenders a positive place preference
- Place preference in rats (rats [15]): engenders a positive place preference
- Brain stimulation reward thresholds (mice [3]): lowers brain stimulation reward thresholds
- Self-administration by rats (rats [10]; i.v., 0.24 mg/infusion, ref Hadlock et al. (2011)): is self-administered by rats
- Rate of clearance compared to MDMA [16]: much faster rate of clearance when compared to MDMA

SMILES: CNC(C)C(=O)c1ccc2c(c1)OCO2 (centres unmarked) [Methylone, 3,4-methylenedioxymethcathinone]
- SERT release Emax % (SERT [2]): 98 ± 2%
- Extracellular levels of dopamine and serotonin in rat nucleus accumbens [12]: increases extracellular levels of dopamine and serotonin
